According to US4933347A, “Diamidines and bis(imidazolines) for the treatment of and prophylaxis against pneumocystis carinii pneumonia” (University of North Carolina at Chapel Hill, priority 1988, dated 1990):

Test system: Pneumocystis carinii
Experiment: Treatment of Pneumocystis carinii pneumonia in Sprague-Dawley rats (extent of disease by histologic score)
Assay type: in vivo, male Sprague-Dawley rats
Conditions: for Extent of Disease by Histologic Score: number of animals with score 0.5 / Extent of disease by histologic score (combined): number of animals in scoring group 0.5: 0.5 = <10 cysts found per 2 sections; for Extent of disease by histologic score (combined): number of animals in scoring group 0.5 / Extent of disease by histologic score (combined): number of animals in scoring group 1 / Extent of disease by histologic score (combined): number of animals in scoring group 2 / Extent of disease by histologic score (combined): number of animals in scoring group 3 / Extent of disease by histologic score (combined): number of animals in scoring group 4: Table XII composite; for Extent of disease by histologic score (combined): number of animals in scoring group 2: 5-10% of lung involved
Protocol: Induction and Treatment Of Pneumocystis Carinii in Sprague-Dawley Rats
Male Sprague-Dawley rats, barrier raised, non-certified virus free, weighing 150-200g were obtained from Hilltop Laboratories and housed individually. Animals were begun on a low (8%) protein diet (ICN Biomedicals, Cincinnati, OH) and drinking water containing tetracycline (0.5 mg/ml) and dexamethasone (1.0 μg/ml) immediately upon arrival. This treatment was given for the next 8 weeks, monitoring fluid intake daily and weighing animals weekly. Dilutions of the drinking solution were made when animals consumed too much fluid so as to prevent cortisone poisoning. At the beginning of the sixth week, animals were divided into groups of 8 animals each and the test compounds were administered daily by i.v. injection at a dose of 10 mg/kg, unless otherwise noted, for the next 14 days.
Animals were sacrificed at the end of the eighth week by chloroform inhalation and the left lung was removed aseptically and placed in sterile Hank's balanced salts solution without calcium or magnesium (HBSS-) for the ground tissue procedure. The right lung was inflated in situ with 10% […] and removed for histologic examination GMS staining. […]

[1] = 10 mg/kg unless otherwise noted
[2] = 10 mg/kg i.v. daily, 14 days, 1 = scattered cysts, <5% of lung involved
[3] = 10 mg/kg i.v. daily, 14 days, 2 = scattered cysts, 5-10% lung involved or small foci of infection
[4] = 10 mg/kg i.v. daily, 14 days, 3 = scattered cysts, 10-50% of lung involved with some intense areas of infection
[5] = 10 mg/kg i.v. daily, 14 days, 4 = >50% of lung involved with many intense areas of focal infection
[6] = 10 mg/kg, 1 = scattered cysts, <5% of lung involved
[7] = 10 mg/kg, 3 = scattered cysts, 10-50% of lung involved
[8] = 10 mg/kg, 4 = >50% of lung involved

| SMILES | Efficacy in treating PCP compared with pentamidine [1] | Extent of Disease by Histologic Score: number of animals with score 0.5 (10 mg/kg i.v. daily, 14 days) | Extent of Disease by Histologic Score: number of animals with score 1 [2] | Extent of Disease by Histologic Score: number of animals with score 2 [3] | Extent of Disease by Histologic Score: number of animals with score 3 [4] | Extent of Disease by Histologic Score: number of animals with score 4 [5] | Extent of disease by histologic score (combined): number of animals in scoring group 0.5 (10 mg/kg) | Extent of disease by histologic score (combined): number of animals in scoring group 1 [6] | Extent of disease by histologic score (combined): number of animals in scoring group 2 (10 mg/kg, 2 = scattered cysts) | Extent of disease by histologic score (combined): number of animals in scoring group 3 [7] | Extent of disease by histologic score (combined): number of animals in scoring group 4 [8] | other results |
| --- | --- | --- | --- | --- | --- | --- | --- | --- | --- | --- | --- | --- |
| COc1cc(C(=N)N)ccc1OCCCCCOc1ccc(C(=N)N)cc1OC [Example 15] | improved performance in treating pcp | – | – | – | – | – | – | – | – | – | – | Extent of Disease by Histologic Score: number of animals with score 0.5 (5 mg/kg i.v. daily, 14 days): 0 animals; Extent of Disease by Histologic Score: number of animals with score 1 (5 mg/kg i.v. daily, 14 days, 1 = scattered cysts, <5% of lung involved): 3 animals; Extent of Disease by Histologic Score: number of animals with score 2 (5 mg/kg i.v. daily, 14 days, 2 = scattered cysts, 5-10% lung involved or small foci of infection): 4 animals; Extent of Disease by Histologic Score: number of animals with score 3 (5 mg/kg i.v. daily, 14 days, 3 = scattered cysts, 10-50% of lung involved with some intense areas of infection): 1 animals; Extent of Disease by Histologic Score: number of animals with score 4 (5 mg/kg i.v. daily, 14 days, 4 = >50% of lung involved with many intense areas of focal infection): 0 animals; Extent of Disease by Histologic Score: number of animals with score 0.5 (Table III, Example 15 (Table XII footnote d: 2.5 mg/kg)): 2 animals; Extent of Disease by Histologic Score: number of animals with score 1 (Table III, Example 15 (Table XII footnote d: 2.5 mg/kg), 1 = <5% of lung involved): 1 animals; Extent of Disease by Histologic Score: number of animals with score 2 (Table III, Example 15 (Table XII footnote d: 2.5 mg/kg), 2 = 5-10% lung involved): 3 animals; Extent of Disease by Histologic Score: number of animals with score 3 (Table III, Example 15 (Table XII footnote d: 2.5 mg/kg), 3 = 10-50% of lung involved): 0 animals; Extent of Disease by Histologic Score: number of animals with score 4 (Table III, Example 15 (Table XII footnote d: 2.5 mg/kg), 4 = >50% of lung involved): 0 animals; Extent of disease by histologic score (combined): number of animals in scoring group 0.5 (tested at 2.5 mg/kg): 2 animals; Extent of disease by histologic score (combined): number of animals in scoring group 1 (tested at 2.5 mg/kg, 1 = scattered cysts, <5% of lung involved): 4 animals; Extent of disease by histologic score (combined): number of animals in scoring group 2 (tested at 2.5 mg/kg, 2 = scattered cysts): 7 animals; Extent of disease by histologic score (combined): number of animals in scoring group 3 (tested at 2.5 mg/kg, 3 = scattered cysts, 10-50% of lung involved): 1 animals; Extent of disease by histologic score (combined): number of animals in scoring group 4 (tested at 2.5 mg/kg, 4 = >50% of lung involved): 0 animals; Efficacy in treating PCP compared with control (compound at 5 mg/kg): significantly better, at one half the dose, than the control |
| N=C(N)c1ccc(NCCCCCNc2ccc(C(=N)N)cc2N)c(N)c1 [Example 19] | not as good as pentamidine in controlling pcp | 0 animals | 2 animals | 4 animals | 2 animals | 0 animals | 3 animals | 2 animals | 3 animals | 0 animals | 0 animals | Efficacy in treating PCP compared with control [1]: better than the control |
| N=C(N)c1ccc(OCCCCCCOc2ccc(C(=N)N)cc2)cc1 [Example 20, hexamidine, reference compound] | improved performance in treating pcp | 3 animals | 3 animals | 1 animals | 0 animals | 0 animals | 3 animals | 3 animals | 1 animals | 0 animals | 0 animals | – |
| N=C(N)c1ccc(OCCCCCCOc2ccc(C(=N)N)cc2[N+](=O)[O-])c([N+](=O)[O-])c1 [Example 21] | – | – | – | – | – | – | – | – | – | – | – | Extent of Disease by Histologic Score: number of animals with score 0.5 (1.25 mg/kg (dose from Table XII footnote e)): 4 animals; Extent of Disease by Histologic Score: number of animals with score 1 (1.25 mg/kg (dose from Table XII footnote e), 1 = scattered cysts, <5% of lung involved): 1 animals; Extent of Disease by Histologic Score: number of animals with score 2 (1.25 mg/kg (dose from Table XII footnote e), 2 = scattered cysts, 5-10% lung involved or small foci of infection): 1 animals; Extent of Disease by Histologic Score: number of animals with score 3 (1.25 mg/kg (dose from Table XII footnote e), 3 = scattered cysts, 10-50% of lung involved): 0 animals; Extent of Disease by Histologic Score: number of animals with score 4 (1.25 mg/kg (dose from Table XII footnote e), 4 = >50% of lung involved): 0 animals; Extent of disease by histologic score (combined): number of animals in scoring group 0.5 (tested at 1.25 mg/kg): 4 animals; Extent of disease by histologic score (combined): number of animals in scoring group 1 (tested at 1.25 mg/kg, 1 = scattered cysts, <5% of lung involved): 1 animals; Extent of disease by histologic score (combined): number of animals in scoring group 2 (tested at 1.25 mg/kg, 2 = scattered cysts): 1 animals; Extent of disease by histologic score (combined): number of animals in scoring group 3 (tested at 1.25 mg/kg, 3 = scattered cysts, 10-50% of lung involved): 0 animals; Extent of disease by histologic score (combined): number of animals in scoring group 4 (tested at 1.25 mg/kg, 4 = >50% of lung involved): 0 animals |
| N=C(N)c1ccc(NCCCCCCNc2ccc(C(=N)N)cc2N)c(N)c1 [Example 23] | – | 3 animals | 1 animals | 2 animals | 0 animals | 1 animals | 3 animals | 1 animals | 2 animals | 0 animals | 1 animals | – |
| N=C(N)c1cccc(OCCCOc2cccc(C(=N)N)c2)c1 [Example 26] | – | 2 animals | 1 animals | 4 animals | 1 animals | 0 animals | 2 animals | 1 animals | 4 animals | 1 animals | 0 animals | – |
| N=C(N)c1cccc(OCCCCOc2cccc(C(=N)N)c2)c1 [Example 27] | – | 2 animals | 1 animals | 1 animals | 3 animals | 0 animals | 2 animals | 1 animals | 1 animals | 3 animals | 0 animals | – |
| N=C(N)c1cccc(OCCCCCOc2cccc(C(=N)N)c2)c1 [Example 28] | – | – | – | – | – | – | 4 animals | 3 animals | 6 animals | 2 animals | 1 animals | – |
| N=C(N)c1cccc(OCCCCCCOc2cccc(C(=N)N)c2)c1 [Example 29] | – | 1 animals | 4 animals | 1 animals | 2 animals | 0 animals | 1 animals | 4 animals | 1 animals | 2 animals | 0 animals | – |
